The results in this text go back to patent US20030154517A1, “Efficiency agrobacterium-mediated wheat transformation method” (priority 2001, published 2003).

For assay [1], the system named is immature embryos of wheat. Kind of assay: Agrobacterium-mediated wheat transformation, nptII (G418/kanamycin) selection (transformation efficiency). It is filed as cell-based, Triticum aestivum L. From the text:
(§1) Immature embryos of wheat (Triticum aestivum L) cv Bobwhite were isolated from the immature caryopsis (wheat spikelets) 12-15 days after pollination, and cultured on CM4C (Table 2) for 1-8 days, most typically for 4-6. The embryos without embryogenic callus were selected for Agrobacterium inoculation.
A disarmed Agrobacterium strain C58 (ABI) harboring a binary vector was used for all the experiments. […] The Agrobacterium cells were resuspended in the inoculation medium and the density was adjusted to an OD660 of 1. […] An equal amount of the Agrobacterium cell suspension was added such that the final concentration of Agrobacterium cells was an OD660 of 0.5. In most experiments, pluronic F68 was added to the inoculation mixture at a final concentration of 0.01%. The ratio between the Agrobacterium and immature embryos (IEs) was about 10 mL: 20-200 IEs. The conditions for inoculation were temperatures from about 23° C.-26° C. with a duration from about 5-60 minutes.
(§2) After the inoculation period, the remaining Agrobacterium cells were removed from the explants by using the in-house vacuum equipment. A piece of sterile Whatman No. 1 filter paper (to fit the size of the petri plate) was placed in each of 60×15 or 60×20 mm petri dishes without additional liquid or agar-supplemented media. Two hundred microliters of sterile water was placed in the middle of the filter paper. After 2-3 minutes, the inoculated immature embryos were placed in the plates. Usually, 20-50 explants are grouped as one stack (about 1 cm in size and 60-80 mg/stack), with 4-5 stacks on each plate. The plates were immediately parafilmed and then co-cultivated in the dark at 24° C.-26° C. for 2-3 days.
For nptII selection, immature embryos were isolated, precultured, inoculated, and co-cultured as previously described. After the 3-day co-culture, embryos were transferred to delay culture (solid CM4C2D) media (CM4C media as in Table 2 with 2 mg/L 2,4-D) with 500 mg/L carbenicillin for 7 days in the dark at 25° C. Selection was done in liquid CM4C media (as in Table 2 without the Phytagel) with 100 mg/L carbenicillin and 20 mg/L G418 on a support for 7 days in the dark followed by 7 days in the light (16 hr photoperiod), at 25° C. The calli were then transferred to liquid MMS0.2C media (as in Table 2 without the gelling agent) with 100 mg/L carbenicillin and 25 mg/L G418 on a support for 2 weeks at 25° C. with a 16 hr photoperiod. After 2 weeks, the calli were transferred to liquid MMSOC media (as in Table 2 without the gelling agent) with 100 mg/L carbenicillin and 25 mg/L G418 on a support for 2 to 4 weeks at 25° C. with a 16 hr photoperiod. Plantlets were transferred to solid MMSOC media with 100 mg/L carbenicillin and 25 mg/L G418 in sundae cups for 1 to 4 weeks at 25° C. with a 16 hr photoperiod.

Assay [2] relates to immature embryos of wheat (Triticum aestivum L) cv Bobwhite. Kind of assay: Agrobacterium-mediated wheat transformation, glyphosate selection (transformation efficiency). The class given is cell-based.
Text: as §1
A disarmed Agrobacterium strain C58 (ABI) harboring a binary vector was used for all the experiments. For the control experiments, cultures of Agrobacterium were initiated from glycerol stocks or from a freshly streaked plate and grown overnight at 26° C.-28° C. with shaking (approximately 150 rpm) to mid-log phase (about OD660=1-1.5) in liquid LB medium, pH 7.0 (Miller, 1972) containing 50 mg/L kanamycin, 50 mg/L streptomycin and spectinomycin, and 25 mg/L chloramphenicol with 200 μM acetosyringone (AS). The Agrobacterium cells were resuspended in the inoculation medium and the density was adjusted to an OD660 of 1. The immature embryos cultured in CM4C medium were transferred into sterile petri plates (16×20 mm) or wells of a 6-well cell culture plate (Costar Corporation, Cambridge, Mass.) containing 10 mL of inoculation medium per petri plate or 5 mL per cell culture cluster plate. An equal amount of the Agrobacterium cell suspension was added such that the final concentration of Agrobacterium cells was an OD660 of 0.5. In most experiments, pluronic F68 was added to the inoculation mixture at a final concentration of 0.01%. The ratio between the Agrobacterium and immature embryos (IEs) was about 10 mL: 20-200 IEs. The conditions for inoculation were temperatures from about 23° C.-26° C. with a duration from about 5-60 minutes.
as §2
After a 3-day co-cultivation, the Agrobacterium-infected precultured immature embryos (PCIE) and embryogenic calli were transferred to CM4C medium (Table 2) supplemented with 500 mg/L carbenicillin and cultured for about seven days. This “delay” medium could also contain glyphosate as discussed in Example 4.
The explants were then transferred to CM4C selection medium with 2 mM glyphosate and 500 mg/L carbenicillin for one week in the dark. All the calli were transferred to MMS0.2C (Table 2) supplemented with 0.1 mM glyphosate and 250 mg/L carbenicillin (first regeneration medium) for an additional two weeks of selection with lighting conditions of about 80 μE. […] All the embryogenic calli were transferred to the second regeneration medium MMS0C (Table 2) supplemented with 500 mg/L carbenicillin and 0.02 mM glyphosate. Aromatic amino acids including I-tryptophan, L-tyrosine, and I-phenylalanine (10^−7 mM/amino acid) were added to this medium to facilitate the selection. These tissues were transferred to fresh media every two weeks. […] Once the root system was established, the plants were transferred to soil and subsequently assayed. […]

The test system is the same in assay [3]. Described as above. The class given is cell-based. The source holds these as a separate data set.
The mark [4] stands for this setting: Table 19: compound at 20 μM in second regeneration stage (MMSOC media).
[5] abbreviates: Table 19 compounds at the concentrations tested (2 and/or 20 μM) in MMSOC.
[6] abbreviates: Table 19: compound at 2 μM in second regeneration stage (MMSOC media).

Where “and” joins values, the source holds several entries; their conditions need not be identical. Identical values can stand only once. Like-named read-outs stand apart in the source and are kept apart here.

Regarding `[Cl][Co][Cl]` [Cobalt chloride], in assay [1] (setting [4]), the “% TE” value was 9.2% and the Independent transgenic events/explants is on record as 19/207. Also, in assay [1] (setting [5]), the “effectiveness at increasing TE” value is “more effective than the negative control”.
`[Cl][Cu][Cl]` [Copper chloride]: in assay [1] (setting [6]), the “% TE” value is listed as 16.8% and the Independent transgenic events/explants was 37/220. In addition, in assay [1] (setting [4]), the “% TE” value is on record as 24.2% and the Independent transgenic events/explants was 55/227.
`[Cl-].[Cl-].[Mg+2]` [Magnesium chloride]: in assay [1], the “% TE” value came out at 3.0%, the Independent transgenic events/explants is 7/231 and the “effectiveness at increasing TE” value is “not effective”.
Consider `O=S(=O)([O-])[O-].[Mn+2]` [Manganese sulfate], for which, in assay [1] (setting [4]), the “% TE” value amounted to 4.2% and the Independent transgenic events/explants is listed as 8/189. Besides, in assay [1] (setting [5]), the “effectiveness at increasing TE” value is “not effective”.
Regarding `O=S(=O)([O-])[O-].[Zn+2]` [Zinc sulfate], in assay [1], the Independent transgenic events/explants was 12/219 and 17/107; the “effectiveness at increasing TE” value is recorded as “not effective”. Further, the “% TE” value in assay [1] (setting [6]) was 5.5%. For the same molecule, the “% TE” value in assay [1] (setting [4]) came out at 15.9%.
For the molecule `O=C(O)CNCP(=O)(O)O` [glyphosate], the TE % is 3.7% and 3.8% and 4.9% and 8.3% and 2.4% in assay [2] (0.02 mM glyphosate in preculture and delay culture media (CM4C), per experiment and Total, listed as gly); 5.2% and 1.5% and 4.4% and 3.1% and 4% and 2.2% in assay [2] (selection 7 days in CM4C + 2 mM glyphosate, per experiment and Total); 8.6% and 1.25% and 6.4% and 4.8% and 7.3% and 5.3% in assay [3] (selection 10 days in CM4C + 2 mM glyphosate, per experiment and Total). The Efficiency % in assay [2] (0.1 mM gly in MMS0.2C first regeneration medium, per experiment and Total, listed as gly) was 4.7% and 1.6% and 2.3% and 0.0% and 2.9%; in assay [2] (Table 9b treatment 1: MMS0.2C + 0.1 Gly, two experiments and Total, listed as Gly) it was 4.8% and 6.8% and 8.9%; in assay [3] (0.5 mM gly in MMS0.2C first regeneration medium, per experiment and Total, listed as gly), 1.5% and 7.9% and 2.8% and 3.7% and 3.0%; in assay [3] (1.0 mM gly in MMS0.2C first regeneration medium, per experiment and Total, listed as gly), 5.0% and 5.3% and 4.2% and 2.5%; in assay [3] (Table 9b treatment 2: MMS0.2C + 0.5 Gly, two experiments and Total, listed as Gly), 7.7% and 10.7% and 13.7%. In assay [2] (glyphosate at 0.02 mM in preculture and delay culture media), the “transformation efficiency” value is on record as “significantly improved”.
Consider Copper acetate, for which, in assay [1], the “% TE” value was 23.0% and the Independent transgenic events/explants is recorded as 53/230.
